# In US20150284667A1, “ALCOHOLIC BEVERAGES WITH HEALTH-BENEFITTING AND PROTECTIVE CHARACTERISTICS” (Cerebral Spirits Corporation, priority 2014, published 2015):
# How the values were obtained:
# [1] = system: breast cancer and liver cancer; details: animal studies; cited from earlier work
# [2] = Solubility in ethanol
# [3] = system: hepatocytes; details: cited from earlier work
Structure (SMILES),Antitumor activity [1],Solubility in ethanol [2],Protection of hepatocytes against ethanol-induced cell cytotoxicity [3]
"COc1cc(/C=C/C(=O)O)ccc1O [Ferulic acid, ferulic acid]",direct antitumor activity,,
"CCNC(=O)CC[C@H](N)C(=O)O [L-theanine, gamma-glutamylethylamide]",,ethanol soluble,significantly protect hepatocytes
"Oc1ccc(C=Cc2cc(O)cc(O)c2)cc1 [Resveratrol, resveratrol]",,ethanol soluble,
